The source of these data is patent publication US20220054510A1, “USE OF 1-ALPHA-HYDROXYVITAMIN D5 AND RELATED COMPOUNDS AS PROPHYLACTIC OR THERAPEUTIC AGENTS FOR SARS-COV-2 (COVID-19 VIRUS) AND RELATED INFECTIONS” (priority 2020, published 2022).

In series [1] the test system is SARS-CoV-2. In kind it is cell-based. The note with it: Ace2-A549 cells, concentration of 10 micromolar, FIG. 2.
Series [2] has as its system Ace2-A549 cells (human lung epithelial cells). Nature of the series: host cell survival in SARS-CoV-2 infected Ace2-A549 cells. As to conditions: concentration of 10 micromolar.
Series [3] relates to SARS-CoV-2. The note with it: biorxiv.org/content/10.1101/2020.06.21.162396v1; cited from earlier work.

Take `C=C1/C(=C\C=C2/CCC[C@]3(C)[C@@H]([C@H](C)CC[C@@H](CC)C(C)C)CC[C@@H]23)C[C@@H](O)C[C@@H]1O` [1-alphahydroxyvitamin D5, 1-alpha-hydroxyvitamin D5]: the “elimination of SARS-CoV-2 virus infection” value in series [1] is recorded as “greater than 99%”. For the same compound, the “killing of host cells” value in series [2] was “without killing the host cells”.
As to `C=C1/C(=C\C=C2/CCC[C@]3(C)[C@@H]([C@H](C)CCCC(C)(C)O)CC[C@@H]23)C[C@@H](O)C[C@@H]1O` [Calcitriol], in series [3], the “in vitro activity against this virus” value was “in vitro activity against this virus”.
